The source of these data is ChEMBL document CHEMBL3301361, “Experimental in vitro DMPK and physicochemical data on a set of publicly disclosed compounds”.

The nature of series [1]: physchem. The following applies: octan-1-ol/water, pH 7.4, LogD7.4.
A short description of series [2]: in vitro. The following applies: human, plasma, PPB.
Series [3] in a line: in vitro. Particulars: human.
Series [4] is described as follows: physchem. The following applies: pH 7.4 buffer.

≈ marks a conversion by molar mass, not a printed value.

Usually logD stands for the decadic logarithm of the distribution of all forms, ionised or not, between an organic phase and buffer at a given pH. Read a low logD as lower lipophilicity. A word on the fraction unbound: it is free concentration divided by total concentration. One may read the microsomal CLint as the capacity of the preparation to metabolise the compound, expressed as a volume cleared per time. Low values mean greater metabolic stability, high ones faster metabolism. A word on the solubility (thermodynamic): it is the concentration in solution at equilibrium with solid.

In series [1], `c1ccc(-c2[nH]nc3ccccc23)cc1` showed a logD of 3.79. The compound further had a fraction unbound at 5 h in series [2] of 0.0307. In series [3] (microsomes), this compound showed a microsomal CLint below 3 µL/min/mg.

Regarding `Cc1cc(Nc2cncc(N[C@@H](C)c3ncc(F)cn3)n2)n[nH]1`, the free fraction (fraction unbound) at 5 h in series [2] is 0.0854. Further, the intrinsic clearance (microsomal CLint) in series [3] (liver microsomes) stood at 15.8 µL/min/mg.

Compound `C[C@H](CO)Nc1nc(SCc2cccc(F)c2F)nc2nc(NC3CC3)sc12` displayed a logD in series [1] of 4.37. This compound gave a fraction unbound at 5 h in series [2] of 0.0122. For the same compound, the microsomal CLint in series [3] (liver microsomes) stood at 66 µL/min/mg.

`Cc1ccc2c(c1)c(-c1ccnc3c(F)cccc13)c(C)n2CC(=O)O` returned a logD in series [1] of 0.53. Besides, in series [2], the fraction unbound at 5 h is 0.009. In series [3] (liver microsomes), the microsomal CLint is below 3 µL/min/mg.

The compound `Cc1cc([C@H](O)[C@](C)(OCc2ccc(-c3ccccc3)cc2)C(=O)NO)no1` had a logD in series [1] of 2.88. Further, the fraction unbound at 5 h in series [2] is 0.0328. Further, the microsomal CLint in series [3] (liver microsomes) stood at 15.8 µL/min/mg.

`Cc1noc(C)c1-c1ccc(CNS(=O)(=O)c2c(C)noc2C)cc1`: the fraction unbound at 5 h in series [2] was 0.0752. Further, the microsomal CLint in series [3] (microsomes) was 60.3 µL/min/mg.

In the case of `COc1ccc2c(c1)c(-c1ccnc3cc(Cl)ccc13)c(C)n2CC(=O)O`, the logD in series [1] stood at 1.16. The compound also had a fraction unbound at 5 h in series [2] of 0.0031. The microsomal CLint in series [3] (liver microsomes) was found to be 4 µL/min/mg.

Regarding `COc1cccc(C(=O)Nc2ccc(C)c(-n3cnc4ccc(N5CCN(C)CC5)cc4c3=O)c2)c1`, the logD in series [1] worked out at 3.08. The compound also gave a microsomal CLint in series [3] (liver microsomes) of 16 µL/min/mg. For the same compound, in series [4], the thermodynamic solubility was 219 µM (≈ 106 µg/mL).

The compound `CC(C)NC(=O)c1ccc2c(Nc3ccc(Cl)cc3)nc(N3CCOCC3)nc2c1` yielded a logD in series [1] of 2.78. The fraction unbound at 5 h in series [2] is 0.0051. In series [3] (liver microsomes), this compound had a microsomal CLint below 3 µL/min/mg.

For `COc1cc2ncnc(Nc3ccc(OCc4ccccn4)c(C)c3)c2cc1OC`, the logD in series [1] is 3.6. Besides, the microsomal CLint in series [3] (liver microsomes) worked out at 15 µL/min/mg. In addition, the solubility (thermodynamic) in series [4] turned out to be 0.9 µM (≈ 0.362 µg/mL).

In the case of `COc1ccccc1C(C#N)NC(=O)[C@@H]1CCCC[C@H]1C(=O)N1CCN(Cc2ccc(F)cc2)CC1` (some centres not stated), the logD in series [1] was found to be 3.57. Also, the fraction unbound at 5 h in series [2] is 0.051. This compound also showed a microsomal CLint in series [3] (liver microsomes) of 127 µL/min/mg.

In series [1], `COc1ccc(OC)c(CNC(=O)c2cccnc2Oc2ccccc2)c1` showed a logD of 3.52. Further, the fraction unbound at 5 h in series [2] is 0.002. In series [3] (liver microsomes), the microsomal CLint amounted to 43.5 µL/min/mg.

In turn, `CC(=O)Nc1cccc2c1c(S(=O)(=O)c1ccc(Cl)cc1)c(C)n2CC(=O)O` gave a fraction unbound at 5 h in series [2] of 0.0428. The microsomal CLint in series [3] (liver microsomes) was below 3 µL/min/mg.

With `N=C(N)c1cc2c(-c3ccccc3)cccc2s1`, the logD in series [1] turned out to be 1.27. In series [2], the fraction unbound at 5 h was 0.101. In series [3] (liver microsomes), this compound showed a microsomal CLint of 5 µL/min/mg.

As to `Cc1ccc(C(=O)Nc2nccs2)cc1-n1cnc2ccc(N3CCN(C)CC3)cc2c1=O`, the logD in series [1] stood at 2.56. Further, in series [3] (liver microsomes), the microsomal CLint was determined as 7 µL/min/mg. Also, the solubility (thermodynamic) in series [4] turned out to be 91.2 µM (≈ 42 µg/mL).

Consider `COc1cc(NC(C)CCCN)c2ncccc2c1` (configuration not stated) [PRIMAQUINE], for which the fraction unbound at 5 h in series [2] was 0.403. The microsomal CLint in series [3] (liver microsomes) is below 3 µL/min/mg.

For `CCCSc1nc(N[C@@H]2C[C@H]2c2ccccc2)c2nnn([C@@H]3C[C@H](OCCO)[C@@H](O)[C@H]3O)c2n1`, the logD in series [1] amounted to 3.87. Further, in series [3] (liver microsomes), the microsomal CLint was below 3 µL/min/mg. The thermodynamic solubility in series [4] was found to be 1 µM (≈ 0.487 µg/mL).

As to `O=C(NO)c1ccc(NS(=O)(=O)c2ccccc2)cc1`, the logD in series [1] came to 0.75. Also, in series [3] (liver microsomes), the microsomal CLint came out at 12 µL/min/mg. The same compound had a solubility (thermodynamic) in series [4] of 316 µM (≈ 92.4 µg/mL).

`COc1ccc(CC(=O)N(C)C2CCN(CCC(c3ccccc3)c3ccccc3)CC2)cc1OC` showed a logD in series [1] of 3.4. The compound also came in with a microsomal CLint in series [3] (liver microsomes) of 112 µL/min/mg. Also, the solubility (thermodynamic) in series [4] came to 324 µM (≈ 157 µg/mL).

Consider `CCc1nc2c(N)nc3ccccc3c2n1CC(C)C`, for which the unbound share (fraction unbound) at 5 h in series [2] is 0.117. In series [3] (liver microsomes), the microsomal CLint is below 3 µL/min/mg.

`O=C(O)CSCC(=O)Nc1nc(-c2ccccc2)cs1` had a fraction unbound at 5 h in series [2] of 0.0097. This compound registered an intrinsic clearance (microsomal CLint) in series [3] (liver microsomes) of 17.8 µL/min/mg.

In the case of `Cc1c(S(=O)(=O)c2ccc(Cl)cc2)c2cc(F)ccc2n1CC(=O)O`, in series [1], the logD was -0.16. The compound further had a fraction unbound at 5 h in series [2] of 0.0043. In addition, in series [3] (liver microsomes), the microsomal CLint is below 3 µL/min/mg.

With `N#CC1=C2C(=NC1=O)c1cccc3c(N4CCSCC4)ccc2c13`, the logD in series [1] stood at 3.22. Also, in series [2], the fraction unbound at 5 h is 0.0139. This compound gave a microsomal CLint in series [3] (liver microsomes) of 115 µL/min/mg.

Compound `N#Cc1ccc(F)c(-c2cc(C(F)(F)F)ccc2OCC(=O)O)c1` yielded a logD in series [1] of -0.16. In addition, in series [2], the fraction unbound at 5 h was 0.0293. The microsomal CLint in series [3] (microsomes) is below 3 µL/min/mg.

For the compound `O=C(NCc1ccccc1Cl)c1cccnc1Oc1ccccc1`, in series [1], the logD was determined as 3.68. Moreover, in series [2], the fraction unbound at 5 h was 0.134. The compound further came in with a microsomal CLint in series [3] (liver microsomes) of 36 µL/min/mg.

In turn, `NC(=O)Nc1cc(-c2ccccc2)sc1C(N)=O` registered a logD in series [1] of 2.43. Besides, the microsomal CLint in series [3] (liver microsomes) came to 27 µL/min/mg. The thermodynamic solubility in series [4] worked out at 17 µM (≈ 4.44 µg/mL).
